Measurements from US20090124675A1, “INHIBITORS OF ANTI-APOPTOTIC PROTEINS” (Burnham Institute for Medical Research, priority 2007, published 2009).
“Also recorded” adds a separate entry of the source.

Columns and labels:
BCL-XL [1] = molecular target: T1, BCL-XL (Homo sapiens, UniProt Q07817); assay: Inhibition evaluated by measuring dissociation constant (Kd); assay type: binding
T1 construct: Recombinant full length BCL-XL was produced; poly-His (N); made in house; host or cells: E. coli BL21
T1 sequence (Q07817 whole entry, species assumed): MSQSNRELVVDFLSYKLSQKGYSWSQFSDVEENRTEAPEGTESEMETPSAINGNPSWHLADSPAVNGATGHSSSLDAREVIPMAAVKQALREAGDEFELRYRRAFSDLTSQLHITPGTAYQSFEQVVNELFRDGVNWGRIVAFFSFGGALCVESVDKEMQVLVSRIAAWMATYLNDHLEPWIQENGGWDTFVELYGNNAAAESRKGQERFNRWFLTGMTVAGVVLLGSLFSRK
Protocol: (§1) Predicted binding mode of some compounds of the present invention to a BCL-2 protein is illustrated by FIG. 1 (binding of compound 11 shown below), FIG. 2A (binding of compound 1 shown above), and FIG. 2B (binding of compound 2 shown above). […] FIG. 4 and FIG. 5 show such NMR data for compounds 6 and 7 shown above. The inhibition was also evaluated by measuring dissociation constant (Kd) values for some compounds of the invention.

B6BCL-2 transgenic mouse = assay: In vivo test in the B6BCL-2 transgenic mouse; conditions: for In vivo activity compared with known compounds / Order of potency in terms of in vivo efficacy: B6BCL-2 transgenic mouse; for Order of potency in terms of in vivo efficacy / Order of severity of toxic effect: rank order; for Order of severity of toxic effect: diminishing severity
Protocol: Some compounds of the invention were also tested in vivo in the B6BCL-2 transgenic mouse. […] Gossypol is described, e.g., in U.S. Pat. No. 7,186,708. Apogossypol is described, e.g., in Meyers A. I.; Willemsen J. J., Tetrahedron Letters, vol. 37, No. 6, February, […], pp. 791-792.

BCL-XL [2] = molecular target: T1, BCL-XL; assay: NMR spectroscopy binding test (1D 1H / 2D [15N,1H]-HSQC); conditions: NMR data, FIGS. 3-5; negative control
Protocol: as §1
For all NMR experiments, BCL-xL was exchanged into 50 mM phosphate buffer at pH 7.5 and measurements were performed at 30° C. 2D [^15N,^1H]-HSQC spectra for BCL-xL were measured with 0.5 mM samples of ^15N-labeled protein. All experiments were performed with a 600 MHz Bruker Avance spectrometer, both equipped with either a TXI probe or a TCI cryoprobe. In all experiments, dephasing of residual water signals was obtained with a WATERGATE sequence. In order to test the ability of test compounds to bind to Bcl-xL, a 25 μM sample of the protein was prepared and 1D ^1H NMR spectra were collected in absence and presence of test compounds. By observing the aliphatic region of the spectra, binding can be readily detected in these simple experiments due to chemical shift changes in active site methyl groups of Ile, Leu, Thr, Val or Ala (region between 0.8 and 0.3 ppm).

Triplet B6Bcl2 mice = assay: Delivery of Epalrestat in vivo, spleen weight in Triplet B6Bcl2 mice
Protocol: Epalrestat (compound 11) was given to Triplet B6Bcl2 mice at a daily dose of 0.12 mmol/kg for 3 days (i.e., QDX3) through oral gavage. […] Both Epalrestat and the negative control were dissolved in PBS.
After 3 days, the spleens of the animals were removed.

| Compound | Kd (BCL-XL [1]) | In vivo activity compared with known compounds (B6BCL-2 transgenic mouse) | Order of potency in terms of in vivo efficacy (B6BCL-2 transgenic mouse) | Order of severity of toxic effect (B6BCL-2 transgenic mouse) | other results |
| --- | --- | --- | --- | --- | --- |
| CC(=C\c1ccccc1)/C=C1/SC(=S)N(C(C(=O)O)c2ccccc2)C1=O (stereo not shown) [Compound 1, 2-[5-(2-methyl-3-phenylallylidene)-4-oxo-2-thioxothiazolidin-3-yl]-2-phenylacetic acid] | 1 µM | – | – | – | – |
| CC(=C\c1ccccc1)/C=C1/SC(=S)N(C(C(=O)O)C(C)C)C1=O (stereo not shown) [Compound 2, 3-methyl-2-[5-(2-methyl-3-phenylallylidene)-4-oxo-2-thioxothiazolidin-3-yl]butanoic acid] | 5.7 µM | – | – | – | – |
| COc1cc2cc(C=C3SC(=S)N(C(C(=O)O)C(C)C)C3=O)c(C)cc2c(C(C)C)c1OC (stereo not shown) [Compound 3, 2-[5-(1-isopropyl-2,3-dimethoxy-7-methylnaphthalen-6-yl-methylene)-4-oxo-2-thioxothiazolidin-3-yl]-3-methylbutanoic acid] | – | equal to, or better than, known compounds gossypol and apogossypol | compound 11>compound 5>compound 3=apogossypol=gossypol | gossypol>>>apogossypol>compound 5=compound 3=compound 11 | – |
| COc1cc2c(cc1OC)C(Br)=C(C=C1SC(=S)N(C(C(=O)O)C(C)C)C1=O)CC2 (stereo not shown) [Compound 5, 2-[5-((4-bromo-1,2-dihydro-6,7-dimethoxynaphthalen-3-yl)methylene)-4-oxo-2-thioxothiazolidin-3-yl]-3-methylbutanoic acid] | – | equal to, or better than, known compounds gossypol and apogossypol | compound 11>compound 5>compound 3=apogossypol=gossypol | gossypol>>>apogossypol>compound 5=compound 3=compound 11 | – |
| CC(C)C(C(=O)O)N1C(=O)C(=CC2=C(Br)c3cc(O)c(O)cc3CC2)SC1=S (stereo not shown) [Compound 6, 2-[5-((4-bromo-1,2-dihydro-6,7-dihydroxynaphthalen-3-yl)methylene)-4-oxo-2-thioxothiazolidin-3-yl]-3-methylbutanoic acid] | – | – | – | – | Binding to BCL-XL by NMR (BCL-XL [2]): binding had occurred |
| COc1c(C=C2SC(=S)N(C(C(=O)O)C(C)C)C2=O)cc2ccccc2c1OC (stereo not shown) [Compound 7, 2-[5-((1,2-dimethoxynaphthalen-3-yl)methylene)-4-oxo-2-thioxothiazolidin-3-yl]-3-methylbutanoic acid] | – | – | – | – | Binding to BCL-XL by NMR (BCL-XL [2]): binding had occurred |
| CC(C)C(C(=O)O)N1C(=O)C(=CC=Cc2ccccc2)SC1=S (stereo not shown) [Compound 9, 3-methyl-2-[4-oxo-5-(3-phenylallylidene)-2-thioxothiazolidin-3-yl]butanoic acid] | 10.6 µM | – | – | – | – |
| CC(C(=O)O)N1C(=O)C(=CC=Cc2ccccc2)SC1=S (stereo not shown) [Compound 10, 2-[4-oxo-5-(3-phenylallylidene)-2-thioxothiazolidin-3-yl]propanoic acid] | 34.4 µM | – | – | – | – |
| CC(=Cc1ccccc1)C=C1SC(=S)N(CC(=O)O)C1=O [Compound 11, 2-[5-(2-methyl-3-phenylallylidene)-4-oxo-2-thioxothiazolidin-3-yl]acetic acid] | 11.8 µM | equal to, or better than, known compounds gossypol and apogossypol | compound 11>compound 5>compound 3=apogossypol=gossypol | gossypol>>>apogossypol>compound 5=compound 3=compound 11 | Shrinkage of spleen (Triplet B6Bcl2 mice; dosed orally or intraperitoneally): induced shrinkage of spleen whether dosed orally or intraperitoneally; Weight loss or signs of toxicity via physical exam (Triplet B6Bcl2 mice; intraperitoneal and oral routes, listed as Epalrestat): no weight loss or signs of toxicity via physical exam; also recorded: qualitatively safer than ApoG; Spleen Weight (Triplet B6Bcl2 mice; oral gavage, 0.12 mmol/kg daily for 3 days (QDX3), in PBS, spleens removed after 3 days): 193.9 mg; % spleen shrinkage, intraperitoneal versus oral dosing (Triplet B6Bcl2 mice; route comparison): Intraperitoneal injection induced more % shrinkage than oral dosing; Binding to BCL-XL by NMR (BCL-XL [2]): binding had occurred |
| Cc1cc2c(C(C)C)c(O)c(O)cc2c(O)c1-c1c(C)cc2c(C(C)C)c(O)c(O)cc2c1O [apogossypol] | – | – | compound 11>compound 5>compound 3=apogossypol=gossypol | gossypol>>>apogossypol>compound 5=compound 3=compound 11 | – |
| Cc1cc2c(C(C)C)c(O)c(O)c(C=O)c2c(O)c1-c1c(C)cc2c(C(C)C)c(O)c(O)c(C=O)c2c1O [gossypol] | – | – | – | gossypol>>>apogossypol>compound 5=compound 3=compound 11 | – |
| apogossypolone | – | not effective at all | – | – | – |
